Laboratory results from publication PMC6979384, “Characterization of the plant homeodomain (PHD) reader family for their histone tail interactions” (Epigenetics & Chromatin, 2020).

Columns and labels:
Test in all cases: Histone peptide microarray
Assay type in all cases: binding, human
AIRE (PP) = settings: AIRE (PP); sheet "Array Heatmap"; each array performed twice, total n = 4
Procedure, shortened: (§1)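 A peptide microarray holding 293 synthetic histone peptides with individual or combinatorial modifications was probed with each GST-PHD protein at 0.5 μM. Values represent mean intensity (±SD) from four replicates.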

BAZ2B = settings: BAZ2B; sheet "Array Heatmap"; each array performed twice, total n = 4
Procedure, shortened: as §1

BPTF (PB) = settings: BPTF (PB); sheet "Array Heatmap"; each array performed twice, total n = 4
Procedure, shortened: as §1

CHD4 (PPCC) = settings: CHD4 (PPCC); sheet "Array Heatmap"; each array performed twice, total n = 4
Procedure, shortened: as §1

CHD5 (PCC) = settings: CHD5 (PCC); sheet "Array Heatmap"; each array performed twice, total n = 4
Procedure, shortened: as §1

CHD5 (PPCC) = settings: CHD5 (PPCC); sheet "Array Heatmap"; each array performed twice, total n = 4
Procedure, shortened: as §1

DIDO1 = settings: DIDO1; sheet "Array Heatmap"; each array performed twice, total n = 4
Procedure, shortened: as §1

DPF2 (PPC2W2) = settings: DPF2 (PPC2W2); sheet "Array Heatmap"; each array performed twice, total n = 4
Procedure, shortened: as §1

ING1 = settings: ING1; sheet "Array Heatmap"; each array performed twice, total n = 4
Procedure, shortened: as §1

ING2 = settings: ING2; sheet "Array Heatmap"; each array performed twice, total n = 4
Procedure, shortened: as §1

ING3 = settings: ING3; sheet "Array Heatmap"; each array performed twice, total n = 4
Procedure, shortened: as §1

ING4 = settings: ING4; sheet "Array Heatmap"; each array performed twice, total n = 4
Procedure, shortened: as §1

ING5 = settings: ING5; sheet "Array Heatmap"; each array performed twice, total n = 4
Procedure, shortened: as §1

KDM4C (TTP) = settings: KDM4C (TTP); sheet "Array Heatmap"; each array performed twice, total n = 4
Procedure, shortened: as §1

KDM5A (1) = settings: KDM5A (1); sheet "Array Heatmap"; each array performed twice, total n = 4
Procedure, shortened: as §1

KDM5A (3) = settings: KDM5A (3); sheet "Array Heatmap"; each array performed twice, total n = 4
Procedure, shortened: as §1

KDM5B (1) = settings: KDM5B (1); sheet "Array Heatmap"; each array performed twice, total n = 4
Procedure, shortened: as §1

KDM5B (3) = settings: KDM5B (3); sheet "Array Heatmap"; each array performed twice, total n = 4
Procedure, shortened: as §1

KDM7A = settings: KDM7A; sheet "Array Heatmap"; each array performed twice, total n = 4
Procedure, shortened: as §1

MLL5 = settings: MLL5; sheet "Array Heatmap"; each array performed twice, total n = 4
Procedure, shortened: as §1

MORC3 (CW) = settings: MORC3 (CW); sheet "Array Heatmap"; each array performed twice, total n = 4
Procedure, shortened: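 Binding read as mean relative signal from 4 replicates; microarray held 293 synthetic histone peptides with single or combinatorial PTMs. Each GST-tagged PHD reader was applied at 0.5 μM using the optimized Petell protocol.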

PHF13 = settings: PHF13; sheet "Array Heatmap"; each array performed twice, total n = 4
Procedure, shortened: as §1

PHF21A = settings: PHF21A; sheet "Array Heatmap"; each array performed twice, total n = 4
Procedure, shortened: as §1

PHF23 = settings: PHF23; sheet "Array Heatmap"; each array performed twice, total n = 4
Procedure, shortened: as §1

PHF2 = settings: PHF2; sheet "Array Heatmap"; each array performed twice, total n = 4
Procedure, shortened: as §1

PHF8 = settings: PHF8; sheet "Array Heatmap"; each array performed twice, total n = 4
Procedure, shortened: as §1

PHRF1 (RP) = settings: PHRF1 (RP); sheet "Array Heatmap"; each array performed twice, total n = 4
Procedure, shortened: as §1

RAG2 = settings: RAG2; sheet "Array Heatmap"; each array performed twice, total n = 4
Procedure, shortened: as §1

SP140L = settings: SP140L; sheet "Array Heatmap"; each array performed twice, total n = 4
Procedure, shortened: as §1

TAF3 = settings: TAF3; sheet "Array Heatmap"; each array performed twice, total n = 4
Procedure, shortened: as §1

TRIM66 (PB) = settings: TRIM66 (PB); sheet "Array Heatmap"; each array performed twice, total n = 4
Procedure, shortened: as §1

Substance | Array Heatmap value (peptide array signal) (AIRE (PP)) | Array Heatmap value (peptide array signal) (BAZ2B) | Array Heatmap value (peptide array signal) (BPTF (PB)) | Array Heatmap value (peptide array signal) (CHD4 (PPCC)) | Array Heatmap value (peptide array signal) (CHD5 (PCC)) | Array Heatmap value (peptide array signal) (CHD5 (PPCC)) | Array Heatmap value (peptide array signal) (DIDO1) | Array Heatmap value (peptide array signal) (DPF2 (PPC2W2)) | Array Heatmap value (peptide array signal) (ING1) | Array Heatmap value (peptide array signal) (ING2) | Array Heatmap value (peptide array signal) (ING3) | Array Heatmap value (peptide array signal) (ING4) | Array Heatmap value (peptide array signal) (ING5) | Array Heatmap value (peptide array signal) (KDM4C (TTP)) | Array Heatmap value (peptide array signal) (KDM5A (1)) | Array Heatmap value (peptide array signal) (KDM5A (3)) | Array Heatmap value (peptide array signal) (KDM5B (1)) | Array Heatmap value (peptide array signal) (KDM5B (3)) | Array Heatmap value (peptide array signal) (KDM7A) | Array Heatmap value (peptide array signal) (MLL5) | further results
H2BK5me1: H2B 1-24 [Peptide H2BK5me1] | 0.3816 | 0.4388 | 0.3333 | 0.5519 | 0.7328 | 0.5218 | 0.7058 | 0.6733 | 0.5552 | 0.6238 | 0.4514 | 0.4312 | 0.3396 | 0.4441 | 0.4431 | 0.4387 | 0.6308 | 0.4454 | 0.316 | 0.5838 | Array Heatmap value (peptide array signal) (MORC3 (CW)): 0.347; Array Heatmap value (peptide array signal) (PHF13): 0.5791; Array Heatmap value (peptide array signal) (PHF21A): 0.4511; Array Heatmap value (peptide array signal) (PHF23): 0.5121; Array Heatmap value (peptide array signal) (PHF2): 0.5195; Array Heatmap value (peptide array signal) (PHF8): 0.341; Array Heatmap value (peptide array signal) (PHRF1 (RP)): 0.4244; Array Heatmap value (peptide array signal) (RAG2): 0.242; Array Heatmap value (peptide array signal) (SP140L): 0.3691; Array Heatmap value (peptide array signal) (TAF3): 0.2612; Array Heatmap value (peptide array signal) (TRIM66 (PB)): 0.6209
H2BK5me3: H2B 1-24 [Peptide H2BK5me3] | 0.3902 | 0.449 | 0.341 | 0.5374 | 0.766 | 0.5383 | 0.7661 | 0.6454 | 0.5322 | 0.6172 | 0.4743 | 0.4354 | 0.3443 | 0.446 | 0.4446 | 0.4811 | 0.6322 | 0.4604 | 0.3153 | 0.5755 | Array Heatmap value (peptide array signal) (MORC3 (CW)): 0.3836; Array Heatmap value (peptide array signal) (PHF13): 0.5645; Array Heatmap value (peptide array signal) (PHF21A): 0.4302; Array Heatmap value (peptide array signal) (PHF23): 0.5495; Array Heatmap value (peptide array signal) (PHF2): 0.5404; Array Heatmap value (peptide array signal) (PHF8): 0.3604; Array Heatmap value (peptide array signal) (PHRF1 (RP)): 0.4726; Array Heatmap value (peptide array signal) (RAG2): 0.2767; Array Heatmap value (peptide array signal) (SP140L): 0.332; Array Heatmap value (peptide array signal) (TAF3): 0.2673; Array Heatmap value (peptide array signal) (TRIM66 (PB)): 0.6056
H2BK12ac: H2B 1-24 [Peptide H2BK12ac] | 0.3561 | 0.3626 | 0.2975 | 0.55 | 0.7553 | 0.4364 | 0.6693 | 0.6335 | 0.4874 | 0.5927 | 0.413 | 0.3767 | 0.2703 | 0.3788 | 0.3805 | 0.4192 | 0.5631 | 0.4029 | 0.2936 | 0.5021 | Array Heatmap value (peptide array signal) (MORC3 (CW)): 0.3313; Array Heatmap value (peptide array signal) (PHF13): 0.5184; Array Heatmap value (peptide array signal) (PHF21A): 0.4277; Array Heatmap value (peptide array signal) (PHF23): 0.4647; Array Heatmap value (peptide array signal) (PHF2): 0.5083; Array Heatmap value (peptide array signal) (PHF8): 0.311; Array Heatmap value (peptide array signal) (PHRF1 (RP)): 0.4148; Array Heatmap value (peptide array signal) (RAG2): 0.2122; Array Heatmap value (peptide array signal) (SP140L): 0.3291; Array Heatmap value (peptide array signal) (TAF3): 0.2326; Array Heatmap value (peptide array signal) (TRIM66 (PB)): 0.5657
